The test deals with T1, S1P5 (Homo sapiens, UniProt Q9H228).
T1 construct: expressed in transfected cells; host or cells: CHO cells (membranes)
T1 sequence (Q9H228 whole entry, species assumed): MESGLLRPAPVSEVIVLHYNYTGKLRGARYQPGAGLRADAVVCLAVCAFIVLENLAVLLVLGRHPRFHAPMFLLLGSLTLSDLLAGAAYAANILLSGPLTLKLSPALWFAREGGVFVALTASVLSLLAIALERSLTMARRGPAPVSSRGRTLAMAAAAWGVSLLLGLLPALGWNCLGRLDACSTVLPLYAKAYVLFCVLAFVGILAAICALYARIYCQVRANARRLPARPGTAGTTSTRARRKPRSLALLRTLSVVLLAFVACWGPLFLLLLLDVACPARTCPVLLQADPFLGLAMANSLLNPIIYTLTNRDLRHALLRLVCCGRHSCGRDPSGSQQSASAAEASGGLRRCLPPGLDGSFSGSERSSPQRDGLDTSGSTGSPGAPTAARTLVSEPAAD
In words: [35S]-GTPγS functional binding assay on CHO-S1P5 membranes. The class given is biochemical. Particulars: membranes of CHO cells expressing recombinant S1P5 receptors; measure of S1P5 agonism. The procedure:
CHO cells expressing recombinant S1P5 receptors were cultured in 500 cm^2 culture trays and, once confluent, rinsed and detached with cell-lifting buffer (10 mM HEPES, 154 mM NaCl, 6.85 mM EDTA, pH 7.4). Cells were then pelleted by centrifugation, resuspended, and homogenized in membrane preparation buffer (10 mM HEPES and 10 mM EDTA, pH 7.4) using a Polytron PT 1200E homogenizer (Kinematica, Luzern, Switzerland). Cellular proteins were pelleted by centrifugation at 48,000×g at 4° C. for 30 minutes. The resulting supernatant was discarded, and the pellet was re-suspended again in membrane preparation buffer, homogenized for a second time, and then centrifuged again as described above. The final cellular protein pellet was suspended in ice cold resuspension buffer (10 mM HEPES and 0.1 mM EDTA, pH 7.4), divided into aliquots, and stored at −80° C. until use.
Functional binding assays for [^35S]-GTPγS were performed in 96-well non-binding surface plates with a final volume of 200 μL. The test compounds were serially diluted in DMSO and added to assay plates using a Tecan D300E digital printer with a total volume of 0.4 μL. The control sphingosine-1-phosphate (S1P) was prepared separately by preparing a 400 μM stock solution from a 100 nmol pellet of SIP in 10 mM Na2CO3 with 2% s-cyclodextrin. The serial dilution of S1P was done using complete assay buffer (20 mM HEPES, 10 mM MgCl2, 100 mM NaCl, 1 mM EDTA, 0.1% fatty acid free bovine serum albumin (BSA), and 30 μg/mL saponin, pH 7.4) and transferred to wells already containing 0.4 μL DMSO. All the wells were then loaded to a total volume of 40 μL of complete assay buffer, except the non-specific binding (NSB) wells. For NSB wells, 40 μL/well of 50 μM GTPγS (Sigma Aldrich, cat #G8634, St. Louis, MO) was added to wells containing 0.4 μL of DMSO. The assay was started by the addition of 120 μL/well of CHO-S1P receptor membrane solution containing 40 μg/mL of membrane protein, 16.67 μM guanosine diphosphate (GDP; Sigma Aldrich, cat #G7127, St. Louis, MO), and 2.5 mg/mL of WGA PVT SPA beads in complete buffer. Assay plates were then sealed and incubated at room temperature with gentle agitation for 30 minutes. Next, 40 μL/well of 1 nM of [^35S]-GTPγS (PerkinElmer, cat #NEG030X250UC, Waltham, MA) in basic assay buffer (20 mM HEPES, 10 mM MgCl2, 100 mM NaCl, and 1 mM EDTA, pH 7.4) was added to the assay plates to yield a final concentration of […] and the plates were further incubated for 40 minutes at room temperature with gentle agitation. The assay was terminated by centrifugation of the plates at 1000 rpm for 3 minutes using an Eppendorf 5810R centrifuge (Eppendorf, Hamburg, Germany) and G protein bound radioactivity was quantitated using a MicroBeta2 microplate scintillation counter (PerkinElmer, Waltham, MA). As G protein bound radioactivity directly correlates to receptor activation and coupling to the G protein, this assay is a measure of S1P5 agonism.
A general note: GTPγS is a poorly hydrolysed GTP analogue; its binding reports G protein activation.
What is called EC50 is the midpoint of the concentration-response curve. In the case of `O=C(O)[C@@H]1CCCCN1C1CCc2cc(C#Cc3cccc(F)c3)ccc21` (single isomer, unassigned) [Compound 8b], the EC50 lay in the range of 1000 to 10000 nM.
As to `O=C(O)C1CN(C2CCc3cc(-c4ccc(C5CC5)c(F)c4)ccc32)C1` (single isomer, unassigned) [Compound 31a, 1-(5-(4-cyclopropyl-3-fluorophenyl)-2,3-dihydro-1H-inden-1-yl)azetidine-3-carboxylic acid], the EC50 was at most 10 nM.
The figure for `COc1cc(OC)cc(-c2ccc3c(c2)CCC3N2CCC(C(=O)O)CC2)c1` (single isomer, unassigned) [Compound 40, 1-(5-(3,5-dimethoxyphenyl)-2,3-dihydro-1H-inden-1-yl)piperidine-4-carboxylic acid] is 100 to 1000 nM.
On to `O=C(O)C1CN(C2CCc3cc(-c4ccc(C5CC5)c(F)c4)ccc32)C1` (single isomer, unassigned) [Compound 31b, 1-(5-(4-cyclopropyl-3-fluorophenyl)-2,3-dihydro-1H-inden-1-yl)azetidine-3-carboxylic acid], for which the EC50 was at most 10 nM.
On to `O=C(O)[C@@H]1CCN(C2CCc3cc(-c4ccc(C5CC5)c(Cl)c4)ccc32)C1` (single isomer, unassigned) [Compound 34b], for which the concentration giving a half-maximal response (EC50) is at most 10 nM.
As for `O=C(Cc1c(Cl)cccc1Cl)c1ccc2c(c1)CCC2N1CCC(C(=O)O)CC1` (single isomer, unassigned) [Compound 23, 1-(5-(2-(2,6-dichlorophenyl)acetyl)-2,3-dihydro-1H-inden-1-yl)piperidine-4-carboxylic acid], the EC50 fell in the range of 10 to 100 nM.
For the molecule `O=C(O)C1CC2(C1)CN(C1CCc3cc(-c4ccc(C5CC5)c(Cl)c4)ccc31)C2` (stereo not shown) [Compound 39, 2-(5-(3-chloro-4-cyclopropylphenyl)-2,3-dihydro-1H-inden-1-yl)-2-azaspiro[3.3]heptane-6-carboxylic acid], the concentration for a half-maximal effect (EC50) was 10 to 100 nM.

For the origin of these results see patent publication US12624003B2, “Carboxylic acid containing indanyl compounds for the treatment of neurodegenerative diseases” (Celgene Corporation, priority 2020, dated 2026).
